Reference: patent publication US9969744B2, “Compounds for use in cognition improvement” (FUNDACIÓN PARA LA INVESTIGACIÓN MÉDICA APLICADA, priority 2014, dated 2018)
Marks after values point to notes of the source that are not given here.

Columns and labels:
[1] = system: carboxyl terminal fragment AβPP (C99); experiment: AD-related markers in Tg2576 neurons: APP processing (C99); format: cell-based, mouse; settings: Tg2576 primary neurons, compound concentration 50 nM
Experimental: The effects of the compounds on amyloid pathology were analysed in primary cultures after 21 days in-vitro (DIV) of neurons derived from the hippocampus and cortex of Tg2576 mouse embryos. Tg2576 mice express the human 695-aa isoform of APP (hAPP) containing the Swedish double mutation, which favours A3 production. Neurons were treated for two days and collected at day 3, 24 h after the last treatment. First it was analysed the effect of the compounds on hAPP processing by the amyloidogenic pathway by measuring the carboxyl terminal fragment AβPP (C99), which is the precursor of Aβ42. In this case the reported EC50, Table 2 (below), means a 50% decrease in C99 levels over basal (vehicle, no treatment).
To analyze APP-derived fragments and p-Tau levels in primary neuronal cultures, cells were collected in a buffer containing SDS (2%), Tris-HCl (10 mM, pH 7.4), protease inhibitors (1 mM phenylmethylsulfonyl fluoride (PMSF) and Complete Protease Inhibitor Cocktail: Roche Diagnostics) and phosphatase inhibitors (0.1 mM Na3VO4 and 1 mM NaF). The homogenates were sonicated for 2 min and centrifuged at 100,000×g for 1 h. Aliquots of the supernatant were frozen at […] and their protein concentrations determined by the Bradford method using the Bio-Rad protein assay (Bio-Rad, Hercules, Calif., USA). […]

[2] = system: aged-Tg2576 mice; experiment: Memory function in aged-Tg2576 mice: Morris water maze (MWM); format: in vivo; settings: Tg2576 mice (16-18 month), chronic treatment 3-5 weeks, 20 mg/Kg i.p.; retention phase, day 4th; standard error in brackets
Source text: The effect on memory function of compounds of the invention was studied in Tg2576 mice (16-18 month) after a chronic treatment of 3-5 weeks by using two different behavioral tasks: the Fear Conditioning (FC) and the Morris water maze (MWM) test, Table 5 (below)
The MWM test was used to evaluate spatial memory. After treatments, groups of animals underwent spatial reference learning and memory testing in the MWM. The water maze was a circular pool (diameter 1.2 m) filled with water maintained at 20° C. and made opaque by the addition of non-toxic white paint. Mice were trained for three consecutive days (8 trials/day) swimming to a raised platform (visible-platform). No distal visible cues were present during this phase. […] In the probe trials the platform was removed from the pool, and the percentage of time spent in the quadrant where the platform was previously set was recorded. All trials were monitored by a camera above the center of the pool connected to a SMART-LD program (Panlab S.L., Barcelona, Spain) for subsequent analysis of escape latencies, swimming speed, path length and percent time spent in each quadrant of the pool during probe trials. […]

CCCc1nn(C)c2c(=O)[nH]c(-c3cc(Cc4ccc(C(=O)Nc5ccccc5N)cc4)ccc3OCC)nc12 [Example 1-11, N-(2-aminophenyl)-4-[[4-ethoxy-3-(1-methyl-7-oxo-3-propyl-6H-pyrazolo[4,3-d]pyrimidin-5-yl)phenyl]methyl]benzamide] was tested, and the “decrease in C99 levels over basal” value [1] was “++ (basal x0.2≤(++)<basal x0.4 (reduction between 20% and 40%))” and the “MWM (% of time on right quadrant)” value [2] was 33.83 (2.24)^c %.
